Reference: patent US9364479B2, “Use of a receptor-type kinase modulator for treating polycystic kidney disease” (SYMPHONY EVOLUTION, INC., priority 2010, dated 2016)

How the values were obtained:
Format in all cases: biochemical
[1] = molecular target: T1, Monoamine Oxidase A, Peripheral (Rattus norvegicus, UniProt P21396); assay: NovaScreen assay; conditions: read-out: Inhibition, 10 μM XL-647
T1 construct: NovaScreen

IKKα = IKKα (Homo sapiens, UniProt O15111); assay: In vitro kinase inhibition screen
Experimental: (§1) Further screening was performed using the biochemical assay methods of Example 2. Additional description of the components and concentrations are summarized in Table 8, Table 9, and Table 10, below.

PAK2 = PAK2 (Homo sapiens, UniProt Q13177); assay: In vitro kinase inhibition screen
Experimental: as §1

Yes = Yes (Homo sapiens, UniProt P07947); assay: In vitro kinase inhibition screen
Experimental: as §1

MAP4K5 = MAP4K5 (Homo sapiens, UniProt Q9Y4K4); assay: In vitro kinase inhibition screen
Chain of MAP4K5 (Q9Y4K4 whole entry, species assumed): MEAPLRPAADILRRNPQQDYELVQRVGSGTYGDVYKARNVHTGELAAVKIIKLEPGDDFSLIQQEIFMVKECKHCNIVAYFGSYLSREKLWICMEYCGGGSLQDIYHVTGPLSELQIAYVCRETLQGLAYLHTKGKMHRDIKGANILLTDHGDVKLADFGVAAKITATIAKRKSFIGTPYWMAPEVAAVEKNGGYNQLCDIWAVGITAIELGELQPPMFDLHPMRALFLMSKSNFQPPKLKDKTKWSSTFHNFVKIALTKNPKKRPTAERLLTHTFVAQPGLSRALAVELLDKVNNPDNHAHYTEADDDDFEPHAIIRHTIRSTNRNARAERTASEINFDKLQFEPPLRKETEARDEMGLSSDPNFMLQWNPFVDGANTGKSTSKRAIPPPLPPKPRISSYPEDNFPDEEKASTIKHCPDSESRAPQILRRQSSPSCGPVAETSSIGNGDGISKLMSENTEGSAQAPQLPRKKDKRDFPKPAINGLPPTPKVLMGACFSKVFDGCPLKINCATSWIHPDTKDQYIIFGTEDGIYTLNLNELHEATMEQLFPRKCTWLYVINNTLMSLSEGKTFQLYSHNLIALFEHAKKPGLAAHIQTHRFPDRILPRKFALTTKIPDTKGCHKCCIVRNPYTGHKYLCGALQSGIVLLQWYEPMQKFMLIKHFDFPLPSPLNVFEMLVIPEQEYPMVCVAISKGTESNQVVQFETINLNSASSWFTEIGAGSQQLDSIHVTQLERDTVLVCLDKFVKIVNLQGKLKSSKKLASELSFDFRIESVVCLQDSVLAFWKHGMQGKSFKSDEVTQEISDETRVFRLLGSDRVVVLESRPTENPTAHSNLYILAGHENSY
Experimental: as §1

MEK1 = MEK1 (Homo sapiens, UniProt Q02750); assay: In vitro kinase inhibition screen
Experimental: as §1

CamKII = assay: In vitro kinase inhibition screen
Experimental: as §1

SAPK3 = SAPK3 (Homo sapiens, UniProt P53778); assay: In vitro kinase inhibition screen
Experimental: as §1

PKC-γ = PKC-γ (Homo sapiens, UniProt P05129); assay: In vitro kinase inhibition screen
Experimental: as §1

Rsk1 = Rsk1 (Homo sapiens, UniProt Q15418); assay: In vitro kinase inhibition screen
Chain of Rsk1 (Q15418 whole entry, species assumed): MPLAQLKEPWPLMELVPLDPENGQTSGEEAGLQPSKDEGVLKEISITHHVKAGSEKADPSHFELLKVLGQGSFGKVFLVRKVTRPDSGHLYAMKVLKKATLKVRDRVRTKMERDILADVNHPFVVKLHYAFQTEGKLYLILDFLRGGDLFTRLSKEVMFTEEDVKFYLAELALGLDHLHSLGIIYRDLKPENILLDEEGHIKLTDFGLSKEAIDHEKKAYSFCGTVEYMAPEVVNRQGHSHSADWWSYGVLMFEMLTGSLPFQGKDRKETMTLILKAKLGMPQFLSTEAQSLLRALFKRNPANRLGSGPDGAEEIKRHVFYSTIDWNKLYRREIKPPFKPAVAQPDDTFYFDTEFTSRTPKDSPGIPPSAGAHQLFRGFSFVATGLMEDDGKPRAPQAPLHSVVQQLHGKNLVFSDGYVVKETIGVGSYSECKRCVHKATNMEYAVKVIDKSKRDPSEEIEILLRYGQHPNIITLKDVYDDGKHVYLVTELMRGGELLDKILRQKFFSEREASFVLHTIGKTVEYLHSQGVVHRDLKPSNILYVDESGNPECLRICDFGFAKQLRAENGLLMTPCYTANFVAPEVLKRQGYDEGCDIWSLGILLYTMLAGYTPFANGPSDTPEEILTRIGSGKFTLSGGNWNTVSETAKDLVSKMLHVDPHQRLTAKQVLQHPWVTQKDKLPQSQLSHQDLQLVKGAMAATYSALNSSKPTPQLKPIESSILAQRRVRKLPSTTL
Experimental: as §1

JNK3α = JNK3α (Homo sapiens, UniProt P53779); assay: In vitro kinase inhibition screen
Experimental: as §1

c-Raf = c-Raf (Homo sapiens, UniProt P04049); assay: In vitro kinase inhibition screen
Experimental: as §1

PKBα = PKBα (Homo sapiens, UniProt P31749); assay: In vitro kinase inhibition screen
Chain of PKBα (P31749 whole entry, species assumed): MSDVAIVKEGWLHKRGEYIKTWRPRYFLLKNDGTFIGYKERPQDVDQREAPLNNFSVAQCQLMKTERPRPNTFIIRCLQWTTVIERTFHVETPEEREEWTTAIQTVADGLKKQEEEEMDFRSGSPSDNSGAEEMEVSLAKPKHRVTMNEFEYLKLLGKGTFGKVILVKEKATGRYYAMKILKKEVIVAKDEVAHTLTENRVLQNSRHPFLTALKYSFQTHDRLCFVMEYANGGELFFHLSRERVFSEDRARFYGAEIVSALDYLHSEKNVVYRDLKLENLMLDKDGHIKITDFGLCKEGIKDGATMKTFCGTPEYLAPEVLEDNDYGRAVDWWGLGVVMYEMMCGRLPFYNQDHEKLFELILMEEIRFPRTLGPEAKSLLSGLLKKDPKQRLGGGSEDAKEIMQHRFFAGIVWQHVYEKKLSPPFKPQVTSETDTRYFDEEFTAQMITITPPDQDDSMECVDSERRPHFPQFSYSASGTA
Experimental: as §1

Lyn = Lyn (Homo sapiens, UniProt P07948); assay: In vitro kinase inhibition screen
Experimental: as §1

Rsk2 = Rsk2 (Homo sapiens, UniProt P51812); assay: In vitro kinase inhibition screen
Experimental: as §1

CDK6 = CDK6 (Homo sapiens, UniProt Q00534); assay: In vitro kinase inhibition screen
Experimental: as §1

Clk1 = Clk1 (Homo sapiens, UniProt P49759); assay: In vitro kinase inhibition screen
Experimental: as §1

JNK2α = JNK2α (Homo sapiens, UniProt P45984); assay: In vitro kinase inhibition screen
Experimental: as §1

MKK7β = MKK7β (Homo sapiens, UniProt O14733); assay: In vitro kinase inhibition screen
Experimental: as §1

CDK1 = CDK1 (Homo sapiens, UniProt P06493); assay: In vitro kinase inhibition screen
Chain of CDK1 (P06493 whole entry, species assumed): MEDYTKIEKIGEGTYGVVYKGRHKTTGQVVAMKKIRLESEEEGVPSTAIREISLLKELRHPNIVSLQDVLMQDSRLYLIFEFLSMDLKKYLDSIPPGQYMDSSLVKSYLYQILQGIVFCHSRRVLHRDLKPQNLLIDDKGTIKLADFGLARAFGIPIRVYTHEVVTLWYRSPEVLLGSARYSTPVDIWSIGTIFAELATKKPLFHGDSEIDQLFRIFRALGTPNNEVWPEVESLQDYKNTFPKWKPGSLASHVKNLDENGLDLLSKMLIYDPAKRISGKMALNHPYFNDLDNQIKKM
Chain of CDK1 (P14635 whole entry partner, species assumed): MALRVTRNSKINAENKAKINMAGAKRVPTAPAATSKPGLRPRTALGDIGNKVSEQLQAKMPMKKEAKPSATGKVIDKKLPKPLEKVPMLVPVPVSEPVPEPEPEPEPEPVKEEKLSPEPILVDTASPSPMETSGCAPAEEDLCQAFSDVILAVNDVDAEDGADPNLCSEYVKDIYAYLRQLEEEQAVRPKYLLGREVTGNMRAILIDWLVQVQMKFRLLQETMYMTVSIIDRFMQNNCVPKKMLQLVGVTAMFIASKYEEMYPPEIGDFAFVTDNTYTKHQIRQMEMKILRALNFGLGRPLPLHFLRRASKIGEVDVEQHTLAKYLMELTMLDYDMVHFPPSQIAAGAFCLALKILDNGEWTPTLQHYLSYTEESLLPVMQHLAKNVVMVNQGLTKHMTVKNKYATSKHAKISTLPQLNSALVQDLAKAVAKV
Experimental: as §1

PDGFR-α = PDGFR-α (Homo sapiens, UniProt P16234); assay: In vitro kinase inhibition screen
Experimental: as §1

p70S6K = p70S6K (Homo sapiens, UniProt P23443); assay: In vitro kinase inhibition screen
Chain of p70S6K (P23443 whole entry): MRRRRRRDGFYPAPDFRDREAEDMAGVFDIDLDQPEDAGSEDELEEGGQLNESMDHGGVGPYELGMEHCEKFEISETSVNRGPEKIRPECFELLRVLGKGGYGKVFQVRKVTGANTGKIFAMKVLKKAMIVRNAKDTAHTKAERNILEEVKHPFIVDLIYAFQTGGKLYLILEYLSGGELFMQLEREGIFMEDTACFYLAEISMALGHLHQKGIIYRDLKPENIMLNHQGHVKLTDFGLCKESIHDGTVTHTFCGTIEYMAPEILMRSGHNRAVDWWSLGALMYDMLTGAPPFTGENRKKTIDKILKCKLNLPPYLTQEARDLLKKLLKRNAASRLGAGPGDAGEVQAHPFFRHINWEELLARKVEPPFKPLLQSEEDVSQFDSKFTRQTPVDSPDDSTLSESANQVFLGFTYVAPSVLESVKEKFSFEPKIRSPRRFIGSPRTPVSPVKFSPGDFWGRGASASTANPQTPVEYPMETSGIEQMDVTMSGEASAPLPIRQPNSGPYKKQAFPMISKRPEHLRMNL
Experimental: as §1

SGK = SGK (Homo sapiens, UniProt O00141); assay: In vitro kinase inhibition screen
Experimental: as §1

JNK1α = JNK1α (Homo sapiens, UniProt P45983); assay: In vitro kinase inhibition screen
Experimental: as §1

MKK4 = MKK4 (Homo sapiens, UniProt P45985); assay: In vitro kinase inhibition screen
Experimental: as §1

CSK = CSK (Homo sapiens, UniProt P41240); assay: In vitro kinase inhibition screen
Experimental: as §1

AMPK = assay: In vitro kinase inhibition screen
Experimental: as §1

IKKβ = IKKβ (Homo sapiens, UniProt O14920); assay: In vitro kinase inhibition screen
Experimental: as §1

PKCα = PKCα (Homo sapiens, UniProt P17252); assay: In vitro kinase inhibition screen
Experimental: as §1

MAPKAP2 = MAPKAP2 (Homo sapiens, UniProt P49137); assay: In vitro kinase inhibition screen
Chain of MAPKAP2 (P49137 whole entry): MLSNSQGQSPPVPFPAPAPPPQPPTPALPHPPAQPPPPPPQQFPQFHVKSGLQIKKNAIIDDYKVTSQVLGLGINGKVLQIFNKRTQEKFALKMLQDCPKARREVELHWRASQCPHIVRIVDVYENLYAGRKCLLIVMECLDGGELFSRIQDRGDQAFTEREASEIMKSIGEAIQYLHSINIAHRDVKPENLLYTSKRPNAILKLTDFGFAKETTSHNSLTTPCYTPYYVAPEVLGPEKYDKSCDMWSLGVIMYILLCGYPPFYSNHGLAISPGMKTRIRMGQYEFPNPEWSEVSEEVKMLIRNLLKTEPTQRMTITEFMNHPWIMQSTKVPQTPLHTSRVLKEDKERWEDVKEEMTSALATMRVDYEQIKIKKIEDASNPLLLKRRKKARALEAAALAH
Experimental: as §1

PKC-ξ = molecular target: T2, PKC-ξ; assay: In vitro kinase inhibition screen
T2 construct: PKC-eta; Human, PanVera
Experimental: as §1

Blk = Blk (Homo sapiens, UniProt P51451); assay: In vitro kinase inhibition screen
Experimental: as §1

KDR = KDR (Homo sapiens, UniProt P35968); assay: Mechanism of action study / Ki determination; set-up: residues D807-V1356 of human KDR, Proqinase; purchased Proqinase
Chain of KDR (P35968 807-1356): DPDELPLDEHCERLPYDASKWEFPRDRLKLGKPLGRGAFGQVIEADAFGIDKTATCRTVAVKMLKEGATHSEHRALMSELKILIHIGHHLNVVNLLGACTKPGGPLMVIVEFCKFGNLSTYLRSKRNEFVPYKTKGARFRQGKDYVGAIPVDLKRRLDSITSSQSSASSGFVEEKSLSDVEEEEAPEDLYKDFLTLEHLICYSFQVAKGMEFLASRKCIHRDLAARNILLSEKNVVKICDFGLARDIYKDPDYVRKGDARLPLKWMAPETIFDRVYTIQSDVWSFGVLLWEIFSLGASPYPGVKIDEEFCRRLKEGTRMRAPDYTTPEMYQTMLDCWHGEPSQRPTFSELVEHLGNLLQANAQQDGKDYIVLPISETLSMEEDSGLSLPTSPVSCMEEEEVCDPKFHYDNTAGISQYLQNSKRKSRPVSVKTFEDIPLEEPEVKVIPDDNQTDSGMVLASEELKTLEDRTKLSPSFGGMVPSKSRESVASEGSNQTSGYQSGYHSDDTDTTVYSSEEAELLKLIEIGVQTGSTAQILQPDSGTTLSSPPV
Experimental: Enzymatic activity was measured by standard methods after dilution of the enzyme-inhibitor complex.

T1 sequence (P21396 whole entry): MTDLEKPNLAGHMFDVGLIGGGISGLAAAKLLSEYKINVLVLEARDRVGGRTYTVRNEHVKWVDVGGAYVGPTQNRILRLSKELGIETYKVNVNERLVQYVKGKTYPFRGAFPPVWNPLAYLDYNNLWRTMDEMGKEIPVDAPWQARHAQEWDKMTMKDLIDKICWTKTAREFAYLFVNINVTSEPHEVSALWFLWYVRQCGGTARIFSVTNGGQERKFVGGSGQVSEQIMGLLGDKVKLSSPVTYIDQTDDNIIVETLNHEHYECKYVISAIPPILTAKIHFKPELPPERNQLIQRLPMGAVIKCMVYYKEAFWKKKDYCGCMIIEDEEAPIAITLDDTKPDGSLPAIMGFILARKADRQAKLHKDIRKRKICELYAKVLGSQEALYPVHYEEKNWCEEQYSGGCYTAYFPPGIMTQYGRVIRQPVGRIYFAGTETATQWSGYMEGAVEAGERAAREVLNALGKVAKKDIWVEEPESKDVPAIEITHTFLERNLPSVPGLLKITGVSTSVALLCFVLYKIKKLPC

COc1cc2c(Nc3ccc(Cl)c(Cl)c3F)ncnc2cc1OC[C@@H]1C[C@@H]2CN(C)C[C@@H]2C1 [XL-647, N-(3,4-dichloro-2-fluorophenyl)-7-({[(3aR,5r,6aS)-2-methyloctahydrocyclopenta[c]pyrrol-5-yl]methyl}oxy)-6-(methyloxy)quinazolin-4-amine]
0.6 nM: Ki (KDR)
15 nM: IC50 (Blk)
64.4 ± 7.2 nM: IC50 (PDGFR-α)
1.1 nM: IC50 (Yes)
Yes: ATP-Competitive (KDR) | Reversible (KDR)
> 10000 nM: IC50 (PKC-γ) | IC50 (PKBα) | IC50 (Clk1) | IC50 (p70S6K; list in excess of 10 μM) | IC50 (SGK) | IC50 (PKCα) | IC50 (MAPKAP2) | IC50 (PKC-ξ)
2 nM: IC50 (Lyn)
1.66%: inhibition at 10 µM [1]
402 nM: IC50 (CSK)
> 1000 nM: IC50 (IKKα) | IC50 (PAK2) | IC50 (MAP4K5) | IC50 (MEK1) | IC50 (CamKII) | IC50 (SAPK3) | IC50 (Rsk1) | IC50 (JNK3α) | IC50 (c-Raf) | IC50 (Rsk2) | IC50 (CDK6) | IC50 (JNK2α) | IC50 (MKK7β) | IC50 (CDK1) | IC50 (p70S6K; list in excess of 1 μM) | IC50 (JNK1α) | IC50 (MKK4) | IC50 (AMPK) | IC50 (IKKβ)
